In publication PMC6017358 (Molecules : A Journal of Synthetic Chemistry and Natural …, 2018) one finds IC50 and LD50 data, which are given here for two compounds.

Molecules are shown by their SMILES. In brackets after ≈: the same amount, converted by molar mass. Several values for one entry are separate records, joined by “and”; a condition that tells them apart may be missing. Equal values may be shown once. Where a name gives a salt, the structure may show the parent alone. Read-outs that look alike come from different tables or passages of the source.

The test system of data set [1] is lung cancer cell line A-549. Kind of data set: In vitro cytotoxicity viability assay (crystal violet). In kind it is cell-based. The following applies: Homo sapiens, A549. The protocol:
(§1) The cells were seeded in 96-well plates at a cell concentration of 1 × 10^4 cells per well in 100 µL of growth medium. Fresh medium containing different concentrations of the test sample was added 24 h after seeding. Serial two-fold dilutions of the tested chemical compound were added to confluent cell monolayers dispensed into 96-well, flat-bottomed microliter plates (Falcon, NJ, USA) using a multichannel pipette. The microliter plates were incubated at 37 °C in a humidified incubator with 5% CO2 for a period of 48 h. Three wells were used for each concentration of the test sample. Control cells were incubated without test sample and with or without DMSO. The little percentage of DMSO present in the wells (maximal 0.1%) was found not to affect the experiment. After incubation of the cells at 37 °C, various concentrations of sample were added, and the incubation was continued for 24 h and viable cells yield was determined by a colorimetric method. In brief, after the end of the incubation period, media were aspirated and the crystal violet solution (1%) was added to each well for at least 30 min. The stain was removed and the plates were rinsed using tap water until all excess stain is removed. Glacial acetic acid (30%) was then added to all wells and mixed thoroughly, and then the absorbance of the plates were measured after gently shaken on microplate reader (TECAN, Inc., Morrisville, NC, USA), using a wavelength of 490 nm. All results were corrected for background absorbance detected in wells without added stain. Treated samples were compared with the cell control in the absence of the tested compounds. All experiments were carried out in triplicate. The cell cytotoxic effect of each tested concentration was calculated. The optical density was measured with the microplate reader (SunRise, TECAN, Inc., Morrisville, NC, USA) to determine the number of viable cells and the percentage of viability was calculated as [1 − (ODt/ODc)] × 100% where ODt is the mean optical density of wells treated with the tested sample and ODc is the mean optical density of untreated cells. The relation between surviving cells and drug concentration is plotted to get the survival curve of each tumor cell line after treatment. […] The biological evaluation was done at the Regional Center for Mycology & Biotechnology, Al-Azhar University.

In data set [2] the test system is breast cancer cell line MCF-7. Described as above. In kind it is cell-based. Particulars: Homo sapiens, MCF7. The protocol:
as §1

The subject of the next data set is rats. Particulars: oral administration in rats; cited from earlier work.

`NCCCC(O)(P(=O)(O)O)P(=O)(O)O` [Alendronate, reference compound]: the IC50 came out at 19 µg/mL (≈ 76.3 µM) in data set [1] (read-out: IC50) and 89.4 µg/mL (≈ 359 µM) in data set [2] (MCF-7, read-out: IC50).
For the compound `CP(=O)(O)CCC(N)C(=O)O` (centres unmarked) [Phosphinothricin, 2-amino-4-(hydroxymethyl-phosphinylbutyric acid ammonium salt], the IC50 in data set [1] was 45.8 µg/mL and 253 µM; in data set [2], 32.6 µg/mL and 180 µM. Also, the LD50 with rats is 2170 mg/kg.
